Test results taken from PubChem BioAssay AID222 (DTP/NCI, 2004).
Where “and” joins values, the source holds several entries; their conditions need not be identical. Equal entries are not always repeated. Inconclusive results and toxic doses are left out.

Tested on: C57BL/6 mice, intracerebral ependymoblastoma, median survival T/C
Experiment: NCI In Vivo Anticancer Drug Screen. Data for tumor model Ependymoblastoma (intracerebral) in C57BL/6 mice
Conditions: endpoint: median survival time, higher = longer survival
Protocol: The antitumor activity of compounds was measured in mice bearing transplantable tumors. Survival or tumor size were measured and the results are expressed as the measurement made in the treated group (T) divided by the measurement made in the vehicle treated control group (C). The tumor model used in this assay is Ependymoblastoma (intracerebral) in C57BL/6 mice

Compound: OC(C1CO1)C(O)C1CO1 (stereo not drawn)
- T/C (dose: 0.12 mg/kg/injection, schedule: Q03HX024 (ip), vehicle: saline): 108 % of control
- T/C (dose: 0.25 mg/kg/injection, schedule: Q01DX001 (ip), vehicle: saline): 102 % of control
- T/C (dose: 0.25 mg/kg/injection, schedule: Q01DX005 (ip), vehicle: saline): 112 % of control
- T/C (dose: 0.25 mg/kg/injection, schedule: Q01DX005 (oral), vehicle: saline): 111 % of control
- T/C (dose: 0.25 mg/kg/injection, schedule: Q01DX009 (ip), vehicle: saline): 101 % of control
- T/C (dose: 0.25 mg/kg/injection, schedule: Q03HX008 (ip), vehicle: saline): 110 % of control
- T/C (dose: 0.25 mg/kg/injection, schedule: Q03HX016 (ip), vehicle: saline): 103 % of control
- T/C (dose: 0.25 mg/kg/injection, schedule: Q03HX024 (ip), vehicle: saline): 99 % of control
- T/C (dose: 0.5 mg/kg/injection, schedule: Q01DX001 (ip), vehicle: saline): 112 % of control
- T/C (dose: 0.5 mg/kg/injection, schedule: Q01DX001 (oral), vehicle: saline): 101 % of control
- T/C (dose: 0.5 mg/kg/injection, schedule: Q01DX005 (ip), vehicle: clinical formulation): 104 % of control
- T/C (dose: 0.5 mg/kg/injection, schedule: Q01DX005 (oral), vehicle: saline): 110 % of control
- T/C (dose: 0.5 mg/kg/injection, schedule: Q01DX009 (ip), vehicle: saline): 108 % of control
- T/C (dose: 0.5 mg/kg/injection, schedule: Q03HX008 (ip), vehicle: saline): 123 % of control
- T/C (dose: 0.5 mg/kg/injection, schedule: Q03HX016 (ip), vehicle: saline): 107 % of control
- T/C (dose: 0.5 mg/kg/injection, schedule: Q03HX024 (ip), vehicle: saline): 98 % of control
- T/C (dose: 0.5 mg/kg/injection, schedule: Q## X006 (ip), vehicle: clinical formulation): 107 % of control
- T/C (dose: 1.0 mg/kg/injection, schedule: Q01DX001 (ip), vehicle: saline): 95 % of control and 107 % of control
- T/C (dose: 1.0 mg/kg/injection, schedule: Q01DX001 (oral), vehicle: saline): 108 % of control
- T/C (dose: 1.0 mg/kg/injection, schedule: Q01DX005 (ip), vehicle: clinical formulation): 116 % of control
- T/C (dose: 1.0 mg/kg/injection, schedule: Q01DX005 (oral), vehicle: saline): 106 % of control
- T/C (dose: 1.0 mg/kg/injection, schedule: Q01DX009 (ip), vehicle: saline): 109 % of control
- T/C (dose: 1.0 mg/kg/injection, schedule: Q03HX016 (ip), vehicle: saline): 113 % of control
- T/C (dose: 1.0 mg/kg/injection, schedule: Q03HX024 (ip), vehicle: saline): 94 % of control
- T/C (dose: 1.0 mg/kg/injection, schedule: Q04DX003 (ip), vehicle: saline): 100 % of control
- T/C (dose: 1.0 mg/kg/injection, schedule: Q08DX002 (ip), vehicle: saline): 108 % of control
- T/C (dose: 1.0 mg/kg/injection, schedule: Q## X006 (ip), vehicle: clinical formulation): 108 % of control
- T/C (dose: 1.0 mg/kg/injection, schedule: Q#A X002 (ip), vehicle: clinical formulation): 104 % of control
- T/C (dose: 1.25 mg/kg/injection, schedule: Q01DX005 (ip), vehicle: saline): 365 % of control
- T/C (dose: 2.0 mg/kg/injection, schedule: Q01DX001 (ip), vehicle: clinical formulation): 91 % of control and 96 % of control and 107 % of control
- T/C (dose: 2.0 mg/kg/injection, schedule: Q01DX001 (ip), vehicle: saline): 94 % of control and 100 % of control and 113 % of control
- T/C (dose: 2.0 mg/kg/injection, schedule: Q01DX001 (oral), vehicle: saline): 108 % of control
- T/C (dose: 2.0 mg/kg/injection, schedule: Q01DX005 (ip), vehicle: clinical formulation): 115 % of control
- T/C (dose: 2.0 mg/kg/injection, schedule: Q01DX005 (oral), vehicle: clinical formulation): 106 % of control
- T/C (dose: 2.0 mg/kg/injection, schedule: Q01DX005 (oral), vehicle: saline): 118 % of control
- T/C (dose: 2.0 mg/kg/injection, schedule: Q01DX009 (ip), vehicle: saline): 113 % of control
- T/C (dose: 2.0 mg/kg/injection, schedule: Q03HX016 (ip), vehicle: saline): 118 % of control
- T/C (dose: 2.0 mg/kg/injection, schedule: Q03HX024 (ip), vehicle: saline): 105 % of control
- T/C (dose: 2.0 mg/kg/injection, schedule: Q04DX003 (ip), vehicle: saline): 105 % of control
- T/C (dose: 2.0 mg/kg/injection, schedule: Q08DX002 (ip), vehicle: saline): 102 % of control
- T/C (dose: 2.0 mg/kg/injection, schedule: Q## X006 (ip), vehicle: clinical formulation): 109 % of control
- T/C (dose: 2.0 mg/kg/injection, schedule: Q#A X002 (ip), vehicle: clinical formulation): 106 % of control
- T/C (dose: 2.5 mg/kg/injection, schedule: Q01DX005 (oral), vehicle: saline): 365 % of control
- T/C (dose: 3.0 mg/kg/injection, schedule: Q01DX005 (ip), vehicle: saline): 119 % of control and 301 % of control
- T/C (dose: 4.0 mg/kg/injection, schedule: Q01DX001 (ip), vehicle: clinical formulation): 102 % of control and 105 % of control and 108 % of control
- T/C (dose: 4.0 mg/kg/injection, schedule: Q01DX001 (ip), vehicle: saline): 94 % of control and 120 % of control
- T/C (dose: 4.0 mg/kg/injection, schedule: Q01DX001 (oral), vehicle: saline): 96 % of control
- T/C (dose: 4.0 mg/kg/injection, schedule: Q01DX009 (ip), vehicle: saline): 103 % of control
- T/C (dose: 4.0 mg/kg/injection, schedule: Q03HX008 (ip), vehicle: saline): 97 % of control
- T/C (dose: 4.0 mg/kg/injection, schedule: Q03HX016 (ip), vehicle: saline): 93 % of control
- T/C (dose: 4.0 mg/kg/injection, schedule: Q03HX024 (ip), vehicle: saline): 94 % of control
- T/C (dose: 4.0 mg/kg/injection, schedule: Q04DX003 (ip), vehicle: saline): 95 % of control
- T/C (dose: 4.0 mg/kg/injection, schedule: Q08DX002 (ip), vehicle: saline): 102 % of control
- T/C (dose: 4.0 mg/kg/injection, schedule: Q#A X002 (ip), vehicle: clinical formulation): 117 % of control
- T/C (dose: 5.0 mg/kg/injection, schedule: Q01DX005 (oral), vehicle: saline): 365 % of control
- T/C (dose: 8.0 mg/kg/injection, schedule: Q01DX001 (ip), vehicle: clinical formulation): 89 % of control and 106 % of control
- T/C (dose: 8.0 mg/kg/injection, schedule: Q01DX001 (ip), vehicle: saline): 94 % of control and 108 % of control and 112 % of control
- T/C (dose: 8.0 mg/kg/injection, schedule: Q01DX001 (oral), vehicle: clinical formulation): 91 % of control and 102 % of control and 115 % of control
- T/C (dose: 8.0 mg/kg/injection, schedule: Q01DX001 (oral), vehicle: saline): 108 % of control
- T/C (dose: 8.0 mg/kg/injection, schedule: Q01DX009 (ip), vehicle: saline): 107 % of control
- T/C (dose: 8.0 mg/kg/injection, schedule: Q03HX008 (ip), vehicle: saline): 95 % of control
- T/C (dose: 8.0 mg/kg/injection, schedule: Q03HX016 (ip), vehicle: saline): 94 % of control
- T/C (dose: 8.0 mg/kg/injection, schedule: Q04DX003 (ip), vehicle: saline): 122 % of control
- T/C (dose: 8.0 mg/kg/injection, schedule: Q08DX002 (ip), vehicle: saline): 104 % of control
- T/C (dose: 8.0 mg/kg/injection, schedule: Q#A X002 (ip), vehicle: clinical formulation): 100 % of control
- T/C (dose: 16.0 mg/kg/injection, schedule: Q01DX001 (ip), vehicle: clinical formulation): 98 % of control
- T/C (dose: 16.0 mg/kg/injection, schedule: Q01DX001 (ip), vehicle: saline): 98 % of control and 101 % of control
- T/C (dose: 16.0 mg/kg/injection, schedule: Q01DX001 (oral), vehicle: clinical formulation): 104 % of control and 108 % of control
- T/C (dose: 16.0 mg/kg/injection, schedule: Q01DX001 (oral), vehicle: saline): 101 % of control
- T/C (dose: 16.0 mg/kg/injection, schedule: Q04DX003 (ip), vehicle: saline): 99 % of control
- T/C (dose: 16.0 mg/kg/injection, schedule: Q08DX002 (ip), vehicle: saline): 104 % of control
- T/C (dose: 16.0 mg/kg/injection, schedule: Q#A X002 (ip), vehicle: clinical formulation): 102 % of control
- T/C (dose: 32.0 mg/kg/injection, schedule: Q01DX001 (ip), vehicle: clinical formulation): 100 % of control
- T/C (dose: 32.0 mg/kg/injection, schedule: Q01DX001 (ip), vehicle: saline): 90 % of control and 100 % of control
- T/C (dose: 32.0 mg/kg/injection, schedule: Q01DX001 (oral), vehicle: clinical formulation): 100 % of control and 114 % of control
- T/C (dose: 32.0 mg/kg/injection, schedule: Q01DX001 (oral), vehicle: saline): 103 % of control
- T/C (dose: 32.0 mg/kg/injection, schedule: Q04DX003 (ip), vehicle: saline): 92 % of control
- T/C (dose: 32.0 mg/kg/injection, schedule: Q08DX002 (ip), vehicle: saline): 99 % of control
- T/C (dose: 64.0 mg/kg/injection, schedule: Q01DX001 (ip), vehicle: saline): 97 % of control and 102 % of control
- T/C (dose: 64.0 mg/kg/injection, schedule: Q01DX001 (oral), vehicle: clinical formulation): 100 % of control
- T/C (dose: 128.0 mg/kg/injection, schedule: Q01DX001 (oral), vehicle: clinical formulation): 100 % of control

Compound: F
- T/C (dose: 16.0 mg/kg/injection, schedule: Q01DX005 (ip), vehicle: saline): 98 % of control
- T/C (dose: 32.0 mg/kg/injection, schedule: Q01DX005 (ip), vehicle: saline): 96 % of control
